Test results reported in US20100184113A1, “CONTROLLING OSTEOGENESIS BY INHIBITION OF OSTEOGENIC SUPPRESSORS” (The Scripps Research Institute Office of Patent Counsel, priority 2006, published 2010).

Tests used:
Assay type in all cases: cell-based, human
CREB = experiment: Western blot of active (phosphorylated) CREB; details: 3 days after transfection, vs siCon treated or untreated
Description: Cell lyses buffer contains 20 mM Tris pH8.0, 1 mM EDTA, 150 mM NaCl and 0.5% NP-40, and before usage, protease inhibitor cocktail (Cat# p8340, Sigma, 1:100 dilution) and phosphatase inhibitor cocktail 2 (Cat# p5726, sigma, 1:100 dilution) were added. Proteins (60 μg/well) were separated in 12% Novex Tris-Glycine gel (Cat# EC6008 box, Invitrogen) and transferred to Nitrocellulose membrane (Cat# LC2001, Invitrogen) using the XCell II blot module system (Cat# E19051, Invitrogen). The membrane was blocked in 5% milk/PBST for 1 hour at room temperature, incubated over night at 4 degree with primary antibody, washed 3 times with PBST (0.05% Tween 20 in PBS), followed by one hour incubation with secondary antibody in 5% milk/PBST and 3 times wash with PBST at room temperature. For antibody against pCREB however, PBST was substituted with PBS in all steps except for the last one. Antibody-bound proteins were detected utilizing ECL Western blotting detection reagent (Amersham Biosciences).
Anti-phospho-CREB was purchased from Upstate Biotechnology (cat# 06-519); Anti-phospho-p38 was purchased from Cell signaling technology (cat# 9910).
To find out whether CREB (cAMP Responding Element Binding protein), a common downstream effector of cAMP signaling pathway, is involved in mediating cAMP signaling controlled differentiation of hMSCs, we checked the expression level of the active form of CREB proteins in cells 3 days after siP2RY11, siADK, siGNAS, siSLC12a2 or siCon transfection. […] To further examine the role of CREB in osteogenesis and adipogenesis, a synthetic 24-mer CRE decoy oligonucleotide that can compete with endogenous CRE enhancers for binding proteins was transfected into hMSCs (Park, Y. G. et al., J Biol Chem 274:1573-1580 (1999)), which were then subjected to the treatment of osteogenic or adipogenic induction media.

hMSCs [1] = experiment: Alizarin red staining for calcium phosphate deposits (ECM mineralization, bone cell maturation); details: for intensity of alizarin red staining: OS treatment started three days after siRNA transfection and continued for 9 days (3+9OS), vs siCon
hMSCs [2] = experiment: Compound treatment on OS-induced osteogenic differentiation of hMSCs (ALP / alizarin red staining); details: for osteogenic differentiation of hMSCs combined with OS treatment: compound plus OS media
Description: (§1) 8-CPT-cAMP, Na (cat# 116812), 5-Iodotubercidin (cat# 407900), Prostaglandin E2 (PGE2, cat# 538904), SB 202190 (cat# 559388) and U0126 (cat# 662005) were purchased from Calbiochem; N6,2′-O-Dibutyryl-cAMP (cat# D0260-5MG), forskolin (cat# F6886), ascorbic acid 2-phosphate (cat# 49752-10G), (3-glycerophosphate (G-6251), dexamethasone (D8893), 3-isobutyl-1-methylxanthine (IBMX, 15879) and Insulin (19278) were purchased from Sigma/Aldrich/Fluka.
(§2) Since the targeted genes are all positively involved in intracellular cAMP signaling, we tested the effect of two compounds of opposing function on cAMP production on osteogenic differentiation of hMSCs, ADK inhibitor 5-iodotubercidin and ADCY activator forskolin (Cottam, H. B. et al., J Med Chem 36:3424-3430 (1993); de Souza, N. J. et al., Med Res Rev 3:201-219 (1983)). […] ATP has been shown as a ligand for P2RY11 receptor (Communi et al., 1997). […] The present observations are consistent with the conclusion that […] in hMSCs, and vice versa.

hMSCs [3] = experiment: Adipogenic differentiation of hMSCs, Oil Red O staining; details: for cell fate commitment osteogenic vs adipogenic: compound combined with the OS media; for differentiation of hMSCs into mature adipocytes: cAMP analog combined with dexamethasone; for adipogenic differentiation of hMSCs, cAMP-raising compounds: compound treatment, especially in the presence of dexamethasone (FIG. 7b)
Description: Cells were rinsed with PBS twice, fixed in 10% formalin solution for 20 minutes, rinsed with PBS twice and dH2O once, washed with propylene glycol for 5 minutes, and stained with Oil red in propylene glycol (12722A, Newcomer Supply) for 30 minutes. Cells were then washed with 85% propylene glycol for 5 minutes, rinsed with dH2O 3 times and preserved in 50% glycerol.
as §1
Bone cell maturation is accompanied by extracellular matrix (ECM) mineralization (John Bilezikian et al., Principles of bone biology, Vol 1, 2nd edn: Academic Press) (2002)). To examine whether the osteogenic differentiation of hMSCs induced by the hit siRNAs can further proceed to the maturation stage, hit siRNA treated cells were cultured for 20 days. […] These observations are consistent with the conclusion that the targeted genes of the ten effective hit siRNAs not only play inhibitory roles in osteogenic specification of hMSCs, but also in bone cell maturation. […] Furthermore, in osteoporotic patients, the number of adipocytes was increased in the marrow, implying a change of cell fate disposition from osteoblast lineage to adipocyte lineage (Justesen, J. et al., Biogerontology 2:165-171 (2001); Meunier, P. et al., Clin Orthop Relat Res 80:147-154 (1971)). We therefore examined the effect of our hit siRNAs on adipogenic differentiation of hMSCs by combined treatment with an adipogenic inducing cocktail (100 μg/ml BMX, 1 μM DEX and 10 μg/ml insulin).
as §2

siGNAS: siRNA UCGAAGAUUGAGGACUACU targeting GNAS complex locus (listed as RNA, chemistry not given here)
level of pCREB protein (CREB): increased
intensity of alizarin red staining (hMSCs [1]): dramatically enhanced

Oc1ccc(-c2nc(-c3ccncc3)c(-c3ccc(F)cc3)[nH]2)cc1 [SB202190]
osteogenic differentiation of hMSCs combined with OS treatment (hMSCs [2]): inhibited the osteogenic inducing effect of OS

siADK: siRNA GCCACACAAAGCAGCAACA targeting adenosine kinase (listed as RNA, chemistry not given here)
level of pCREB protein (CREB): increased
intensity of alizarin red staining (hMSCs [1]): dramatically enhanced
intensity of alizarin red staining, sequential treatment (hMSCs [1]; siRNA (initial 2-4 days) followed by OS media, vs control treatment (FIG. 4)): clearly enhanced the intensity of alizarin red staining

siKCNT1: siRNA UGCGAGCCAAGAUGGACAA targeting potassium channel, subfamily T, member 1 (listed as RNA, chemistry not given here)
intensity of alizarin red staining (hMSCs [1]): dramatically enhanced

CCCCC[C@H](O)/C=C/[C@H]1[C@H](O)CC(=O)[C@@H]1C/C=C\CCCC(=O)O [PGE2, Prostaglandin E2]
cell fate commitment osteogenic vs adipogenic (hMSCs [3]): could switch cell fate determination from osteogenic to adipogenic differentiation

Nc1ncnc2c1nc(Sc1ccc(Cl)cc1)n2[C@@H]1O[C@@H]2COP(=O)(O)O[C@H]2[C@H]1O [8-CPT-cAMP]
differentiation of hMSCs into mature adipocytes (hMSCs [3]): sufficient to differentiate hMSCs into mature adipocytes
cell fate commitment osteogenic vs adipogenic (hMSCs [3]): could switch cell fate commitment from osteogenic to adipogenic
adipogenic differentiation of hMSCs, cAMP-raising compounds (hMSCs [3]): promoted hMSCs to undergo adipogenic differentiation

siBIRC4: siRNA UGUGCUACACAGUCAUUAC targeting baculoviral IAP repeat-containing 4 (listed as RNA, chemistry not given here)
intensity of alizarin red staining (hMSCs [1]): weak enhancement

siP2RY11: siRNA UGCGGGUGCUCAACGUGGA targeting purinergic receptor P2Y, G-protein coupled, 11 (listed as RNA, chemistry not given here)
level of pCREB protein (CREB): increased
intensity of alizarin red staining (hMSCs [1]): dramatically enhanced

Nc1ncnc2c1ncn2[C@@H]1O[C@H](COP(=O)(O)OP(=O)(O)OP(=O)(O)O)[C@@H](O)[C@H]1O [ATP]
siP2RY11 and siSLC12a2 induced osteogenesis in combination with OS (hMSCs [2]; OS and ATP added on third day after siRNA transfection, continued for a week, ALP staining): dosage-dependent inhibitory effect
osteogenic differentiation of hMSCs combined with OS treatment (hMSCs [2]): inhibited the OS-induced osteogenesis of hMSCs
number of cells undergoing adipogenic differentiation (hMSCs [3]; ATP treatment of OS-treated hMSCs): slightly increases

siADCY8: siRNA GGAGAUCAACAAGCAUUCA targeting adenylate cyclase 8 (listed as RNA, chemistry not given here)
intensity of alizarin red staining (hMSCs [1]): weak enhancement

siBCL212: siRNA CCCAGGUCUCCGAUGAACU targeting BCL2-like 2 (listed as RNA, chemistry not given here)
intensity of alizarin red staining (hMSCs [1]): modest enhancement

siSLC12a2: siRNA CCUCUUCGUGGCUACAUCU targeting solute carrier family 12, member 2 (listed as RNA, chemistry not given here)
level of pCREB protein (CREB): increased
intensity of alizarin red staining (hMSCs [1]): dramatically enhanced

COc1cccc(-c2cc(=O)c3ccccc3o2)c1N [PD98059]
osteogenic differentiation of hMSCs combined with OS treatment (hMSCs [2]): inhibited the osteogenic inducing effect of OS

siGBDR1: siRNA CCCGAAAACAUUGCUAGCA targeting putative glialblastoma cell differentiation-related (listed as RNA, chemistry not given here)
intensity of alizarin red staining (hMSCs [1]): dramatically enhanced

CCCC(=O)Nc1ncnc2c1ncn2[C@@H]1O[C@@H]2COP(=O)(O)O[C@H]2[C@H]1OC(=O)CCC [DB-cAMP, N6,2′-dibutyryl-cAMP]
differentiation of hMSCs into mature adipocytes (hMSCs [3]): sufficient to differentiate hMSCs into mature adipocytes
adipogenic differentiation of hMSCs, cAMP-raising compounds (hMSCs [3]): promoted hMSCs to undergo adipogenic differentiation

Nc1ncnc2c1c(I)cn2[C@@H]1O[C@H](CO)[C@@H](O)[C@H]1O [5-iodotubercidin]
osteogenic differentiation of hMSCs combined with OS treatment (hMSCs [2]): significantly enhanced the osteogenic differentiation of hMSCs
adipogenic differentiation of hMSCs under compound (hMSCs [3]; compound plus adipogenic inducing media, oil red o staining (FIG. 7a j-l)): inhibited the adipogenic differentiation of hMSCs in a dose dependent manner

siTBX3: siRNA UGCCAAAGAGGAUGUACAU targeting T-box 3 (ulnar mammary syndrome) (listed as RNA, further chemistry not given here)
intensity of alizarin red staining (hMSCs [1]): no significant effect

CC(C)Cn1c(=O)n(C)c(=O)c2[nH]cnc21 [IBMX, 3-isobutyl-1-methylxanthine]
cell fate commitment osteogenic vs adipogenic (hMSCs [3]): could switch cell fate determination from osteogenic to adipogenic differentiation
adipogenic differentiation of hMSCs, cAMP-raising compounds (hMSCs [3]): promoted hMSCs to undergo adipogenic differentiation
